Experimental findings from the NIST ThermoML archive (doi:10.1016/j.tca.2018.04.002) are described below.

SMILES strings stand for the structures. Numbers after ± are expanded uncertainties.

For data set [1] the following is noted: Crystal.
Data set [2] in a line: Molar enthalpy of transition or fusion. The settings on record: Crystal; DSC.

With `CCCCCCCCCCCC(=O)O` [dodecanoic acid], the thermal conductivity in data set [1] (296.15 K, 101.33 kPa, Hot disk method) was 0.394 ± 0.081 W/m/K. Moreover, the Triple point temperature in data set [1] (DSC) is reported as 320.35 ± 4.1 K. Further, in data set [2], the “Molar enthalpy of transition or fusion” value amounted to 10.4 ± 2.08 kcal/mol.
